Reference: patent US11566007B2, “Ras inhibitors” (Revolution Medicines, Inc., priority 2019, dated 2023)

Key:
K-Ras G12C = K-Ras G12C (Homo sapiens (Human), UniProt P01116+P62937, G12C); assay: Ras-Raf (BRAF RBD) disruption / FRET / MOA assay, KRAS G12C; type: biochemical; settings: KRAS G12C; Ras-Raf disruption/FRET/MOA assay; read-out: IC50* KRAS G12C FRET data
Outline: (§1)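 Compound-driven ternary complex of nucleotide-loaded Ras with cyclophilin A, disrupting BRAF RBD binding. 10-point 3-fold dilution from 30 μM final, 3 h at 25° C, then anti-His Eu-W1024 (10 nM) and anti-GST allophycocyanin (50 nM) for 1.5 h. IC50 from TR-FRET ratio decrease versus DMSO.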

NRAS G12C = NRAS G12C (Homo sapiens (Human), UniProt P01111+P62937, G12C); assay: Ras-Raf (BRAF RBD) disruption / FRET / MOA assay, NRAS G12C; type: biochemical; settings: read-out: IC50* NRAS G12C FRET data
Outline: as §1

KRAS G12D = KRAS G12D (Homo sapiens (Human), UniProt P01116+P62937, G12D); assay: Ras-Raf (BRAF RBD) disruption / FRET / MOA assay, KRAS G12D; type: biochemical; settings: Ras-Raf disruption/FRET/MOA assay; class symbols; read-out: KRAS G12D FRET data IC50
Outline: as §1

NCI-H358 (K-Ras G12C) = assay: CellTiter-Glo cell viability assay, NCI-H358; type: cell-based, human; settings: Homo sapiens, NCI-H358, 120 h, NCI-H358, 5-day treatment; class symbols; read-out: Additional H358 Cell Viability assay data (K-Ras G12C, IC50)
Outline: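 Luminescent viability readout on day 5 after direct compound addition to plated cells; plates sat ~30 min at room temperature before reading. Values expressed as percent of mean DMSO signal, curves fit with a four-parameter logistic model.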

KRAS G13D = KRAS G13D (Homo sapiens (Human), UniProt P01116+P62937, G13D); assay: Ras-Raf (BRAF RBD) disruption / FRET / MOA assay, KRAS G13D; type: biochemical; settings: read-out: IC50* KRAS G13D FRET data
Outline: as §1

KRAS G12V = KRAS G12V (Homo sapiens (Human), UniProt P01116+P62937, G12V); assay: Ras-Raf (BRAF RBD) disruption / FRET / MOA assay, KRAS G12V; type: biochemical; settings: read-out: IC50* KRAS G12V FRET data
Outline: as §1

KRAS G12S = KRAS G12S (Homo sapiens (Human), UniProt P01116+P62937, G12S); assay: Ras-Raf (BRAF RBD) disruption / FRET / MOA assay, KRAS G12S; type: biochemical; settings: Ras-Raf disruption/FRET/MOA assay; class symbols; read-out: KRAS G12S FRET data IC50
Outline: as §1

KRAS WT = KRAS WT (Homo sapiens (Human), UniProt P01116+P62937); assay: Ras-Raf (BRAF RBD) disruption / FRET / MOA assay, KRAS WT; type: biochemical; settings: read-out: IC50* KRAS WT FRET data
Outline: as §1

[1] = test system: NCI-H358 cells (K-Ras G12C); assay: Potency assay: pERK in NCI-H358 cells; type: cell-based, human; settings: Homo sapiens, NCI-H358; H358 KRAS G12C; read-out: pERK EC50
Outline: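 Compounds are dosed as ten 3-fold dilutions from a 10 mM DMSO stock, in duplicate, and left on cells for 4 h at 37 °C, 5% CO2. Phospho-ERK1/2 is then quantified by AlphaLISA SureFire Ultra or In-Cell Western, and IC50 is derived from a 4-parameter sigmoid against log concentration.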

K-Ras G13C = K-Ras G13C (Homo sapiens (Human), UniProt P01116+P62937, G13C); assay: Ras-Raf (BRAF RBD) disruption / FRET / MOA assay, KRAS G13C; type: biochemical; settings: KRAS G13C; Ras-Raf disruption/FRET/MOA assay; read-out: IC50* KRAS G13C FRET data
Outline: as §1

Sequence of K-Ras G12C (P01116-2 other isoform, or with tags, fused parts or gaps G12C): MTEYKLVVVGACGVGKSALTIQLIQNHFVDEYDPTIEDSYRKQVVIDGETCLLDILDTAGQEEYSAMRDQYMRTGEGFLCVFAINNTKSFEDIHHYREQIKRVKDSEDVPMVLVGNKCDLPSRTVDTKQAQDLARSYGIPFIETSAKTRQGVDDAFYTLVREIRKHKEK
Sequence of K-Ras G12C (P62937 whole entry): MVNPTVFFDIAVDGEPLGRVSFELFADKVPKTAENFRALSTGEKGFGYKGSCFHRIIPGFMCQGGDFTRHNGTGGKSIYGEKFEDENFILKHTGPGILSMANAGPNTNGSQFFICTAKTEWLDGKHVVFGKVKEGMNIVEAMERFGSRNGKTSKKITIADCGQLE
Sequence of NRAS G12C (P01111 whole entry G12C): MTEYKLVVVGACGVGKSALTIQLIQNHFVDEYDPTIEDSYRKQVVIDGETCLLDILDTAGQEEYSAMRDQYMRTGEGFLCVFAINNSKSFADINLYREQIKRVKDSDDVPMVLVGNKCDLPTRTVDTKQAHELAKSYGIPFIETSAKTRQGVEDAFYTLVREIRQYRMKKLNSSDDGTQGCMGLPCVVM
Sequence of NRAS G12C (P62937 whole entry): as the sequence (P62937 whole entry) above
Sequence of KRAS G12S (P01116-2 other isoform, or with tags, fused parts or gaps G12S): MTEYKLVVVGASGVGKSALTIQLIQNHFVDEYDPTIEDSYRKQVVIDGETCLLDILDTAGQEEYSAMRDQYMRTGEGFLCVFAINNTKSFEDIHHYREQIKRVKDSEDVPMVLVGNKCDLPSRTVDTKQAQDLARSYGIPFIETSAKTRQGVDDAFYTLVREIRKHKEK
Sequence of KRAS G12S (P62937 whole entry): as the sequence (P62937 whole entry) above
Sequence of KRAS G13D (P01116-2 other isoform, or with tags, fused parts or gaps G13D): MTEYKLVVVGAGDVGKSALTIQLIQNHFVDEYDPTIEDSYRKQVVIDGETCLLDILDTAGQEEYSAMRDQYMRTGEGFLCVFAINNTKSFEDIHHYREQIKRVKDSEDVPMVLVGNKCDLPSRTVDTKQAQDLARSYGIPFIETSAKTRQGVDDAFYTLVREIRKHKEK
Sequence of KRAS G13D (P62937 whole entry): as the sequence (P62937 whole entry) above
Sequence of K-Ras G13C (P01116-2 other isoform, or with tags, fused parts or gaps G13C): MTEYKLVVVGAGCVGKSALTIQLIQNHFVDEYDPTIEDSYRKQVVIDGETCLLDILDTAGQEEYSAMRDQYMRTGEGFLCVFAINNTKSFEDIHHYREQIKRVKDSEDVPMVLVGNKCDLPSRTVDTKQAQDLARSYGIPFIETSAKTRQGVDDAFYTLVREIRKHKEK
Sequence of K-Ras G13C (P62937 whole entry): as the sequence (P62937 whole entry) above
Sequence of KRAS WT (P01116-2 other isoform, or with tags, fused parts or gaps): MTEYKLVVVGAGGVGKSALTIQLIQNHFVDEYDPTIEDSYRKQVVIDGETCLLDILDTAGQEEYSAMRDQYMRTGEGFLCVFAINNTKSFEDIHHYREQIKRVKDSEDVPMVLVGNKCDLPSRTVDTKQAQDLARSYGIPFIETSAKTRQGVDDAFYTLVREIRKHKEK
Sequence of KRAS WT (P62937 whole entry): as the sequence (P62937 whole entry) above
Sequence of KRAS G12D (P01116-2 other isoform, or with tags, fused parts or gaps G12D): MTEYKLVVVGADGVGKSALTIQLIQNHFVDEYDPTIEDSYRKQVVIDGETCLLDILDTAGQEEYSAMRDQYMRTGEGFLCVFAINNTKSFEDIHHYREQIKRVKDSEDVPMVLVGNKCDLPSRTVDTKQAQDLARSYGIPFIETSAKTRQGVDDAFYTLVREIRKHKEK
Sequence of KRAS G12D (P62937 whole entry): as the sequence (P62937 whole entry) above
Sequence of KRAS G12V (P01116-2 other isoform, or with tags, fused parts or gaps G12V): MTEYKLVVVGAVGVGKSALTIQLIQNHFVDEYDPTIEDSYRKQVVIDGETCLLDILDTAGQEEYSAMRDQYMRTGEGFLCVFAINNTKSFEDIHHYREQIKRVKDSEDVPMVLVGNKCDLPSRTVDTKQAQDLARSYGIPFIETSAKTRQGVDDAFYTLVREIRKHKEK
Sequence of KRAS G12V (P62937 whole entry): as the sequence (P62937 whole entry) above

SMILES | IC50 (K-Ras G12C) [µM] | IC50 (NRAS G12C) [µM] | IC50 (KRAS G12D) [µM] | IC50 (NCI-H358 (K-Ras G12C)) [µM] | IC50 (KRAS G13D) [µM] | IC50 (KRAS G12V) [µM] | IC50 (KRAS G12S) [µM] | IC50 (KRAS WT) [µM] | EC50 [1] [µM] | IC50 (K-Ras G13C) [µM]
C=CC(=O)N1CCN(C(=O)N(C)[C@H](C(=O)N[C@H]2Cc3nc(cs3)-c3ccc4c(c3)c(c(-c3cccnc3[C@H](C)OC)n4CC)CC(C)(C)COC(=O)[C@@H]3CCCN(N3)C2=O)C(C)C)[C@@H](C)C1 (atropisomer, axis not shown) [Example A421] | 0.01 to 0.1 | 0.01 to 0.1 | 1 to 10 | 0.01 to 0.1 | 0.1 to 1 | 0.1 to 1 | 0.1 to 1 | 0.1 to 1 | < 5 | 0.01 to 0.1
C=CC(=O)NC[C@@H]1CCN1C(=O)N(C)[C@H](C(=O)N[C@H]1Cc2nc(cs2)-c2ccc3c(c2)c(c(-c2cccnc2[C@H](C)OC)n3CC)CC(C)(C)COC(=O)[C@@H]2CCCN(N2)C1=O)C(C)C (atropisomer, axis not shown) [Example A422] | 0.1 to 1 | 0.1 to 1 | 1 to 10 | 0.01 to 0.1 | 1 to 10 | 1 to 10 | 1 to 10 | 1 to 10 | < 5 | 0.1 to 1
CC#CC(=O)N1CC[C@@]2(CCN([C@H](C(=O)N[C@H]3Cc4cccc(c4)-c4ccc5c(c4)c(c(-c4cccnc4[C@H](C)OC)n5CC)CC(C)(C)COC(=O)[C@@H]4CCCN(N4)C3=O)C(C)C)C2=O)C1 (atropisomer, axis not shown) [Example A426] | 0.1 to 1 | 1 to 10 | > 10 | 0.01 to 0.1 | > 10 | 1 to 10 | 1 to 10 | 1 to 10 | < 5 | 1 to 10
C=CC(=O)N1C[C@H](C)N(C(=O)N(C)[C@H](C(=O)N[C@H]2Cc3nc(cs3)-c3ccc4c(c3)c(c(-c3cccnc3[C@H](C)OC)n4CC)CC(C)(C)COC(=O)[C@@H]3CCCN(N3)C2=O)C(C)C)C[C@H]1C (atropisomer, axis not shown) [Example A430] | 0.1 to 1 | 0.1 to 1 | 1 to 10 | 0.01 to 0.1 | 1 to 10 | 1 to 10 | 0.1 to 1 | 0.1 to 1 | < 5 | 0.1 to 1
C=CC(=O)N1CC2(C1)CN(C(=O)N(C)[C@H](C(=O)N[C@H]1Cc3nc(cs3)-c3ccc4c(c3)c(c(-c3cccnc3[C@H](C)OC)n4CC)CC(C)(C)COC(=O)[C@@H]3CCCN(N3)C1=O)C(C)C)CCO2 (atropisomer, axis not shown) [Example A431] | 0.1 to 1 | 0.1 to 1 | 1 to 10 | 0.01 to 0.1 | 1 to 10 | 0.1 to 1 | 0.1 to 1 | 0.1 to 1 | < 5 | 0.1 to 1
C=CC(=O)N1CCN(C(=O)N(C)[C@H](C(=O)N[C@H]2Cc3nc(cs3)-c3ccc4c(c3)c(c(-c3cccnc3[C@H](C)OC)n4CC)CC(C)(C)COC(=O)[C@@H]3CCCN(N3)C2=O)C(C)C)C[C@H]1C (atropisomer, axis not shown) [Example A432] | 0.01 to 0.1 | 0.01 to 0.1 | 0.1 to 1 | 0.01 to 0.1 | 0.1 to 1 | 0.1 to 1 | 0.1 to 1 | 0.01 to 0.1 | < 5 | 0.01 to 0.1
C=CC(=O)N1CCN(C(=O)N(C)[C@H](C(=O)N[C@H]2Cc3nc(cs3)-c3ccc4c(c3)c(c(-c3cccnc3[C@H](C)OC)n4CC)CC(C)(C)COC(=O)[C@@H]3CCCN(N3)C2=O)C(C)C)C[C@@H]1C (atropisomer, axis not shown) [Example A433] | 0.01 to 0.1 | 0.01 to 0.1 | 0.1 to 1 | 0.01 to 0.1 | 0.1 to 1 | 0.1 to 1 | 0.01 to 0.1 | 0.01 to 0.1 | < 5 | 0.01 to 0.1
